# Where “and” joins values, the source holds several entries; their conditions need not be identical. Equal entries are not always repeated. Structures can show the parent of a compound that is named as a salt.
# Assay: Pharmacokinetics (lactone form, HPLC, non-compartmental) in plasma and urine, days 1 and 4 of first course
# Text: British Journal of Cancer (1996) 73, 744-750 O (C? 1996 Stockton Press All rights reserved 0007-0920/96 $12.00 Phase I and pharmacological study of the new topoisomerase I inhibitor G1147211, using a daily x 5 intravenous administration CJH Gerrits', GJ Creemers', JHM Schellens', P Wissel2, AS Th Planting', R Kunka2, K Selinger2, M de Boer-Dennert', Y Marijnen3, M Harteveld' and J Verweijl 'Department of Medical Oncology, Rotterdam Cancer Institute, Rotterdam, The Netherlands; 2Glaxo Wellcome Inc, Department of Clinical Pharmacology, NC, USA; 3Glaxo Wellcome Inc, Department of Clinical Research, Zeist, The Netherlands. Summary Topoisomerase I inhibitors are interesting anti-cancer agents with a novel mechanism of action. […] In subsequent patient cohorts the dose was escalated from 0.3 to 1.5 mg m-2 day-'. Pharmacokinetics analysis was performed on days 1 and 4 of the first course using a validated high- performance liquid chromatographic assay and non-compartmental methods. […] Its further development was stopped because of unpredictable and severe myelosuppression, gastrointestinal toxicity and haemorrhagic cystitis. In the late 1980s two discoveries brought about a renewal of interest in CPT; firstly, topoisomerase I was identified as the single cellular target of CPT (Hsiang et al., 1985; Hsiang and Liu, 1988) and, secondly, an overexpression of topoisomerase I was found in various tumour cell lines but not in normal tissues (Giovanella et al., 1989; Hirabayaski et al., 1992; Potmesil et al., 1988). Topoisomerase I is a nuclear enzyme that resolves topological problems of the torsionally strained (supercoiled) DNA (Slichenmyer et al., 1993). This is achieved by forming a covalent adduct between topoisome- rase I and the DNA, termed the cleavable complex. This catalytic intermediate creates single-strand DNA breaks, allowing the DNA molecule to rotate around the intact DNA strand at the cleavage site, leading to a relaxation of the DNA molecule and in this way replication, transcription and other DNA functions can proceed. These enzyme- bridged breaks are then resealed by topoisomerase I. CPT stabilises the cleavable complexes, thereby preventing resealing of single-strand DNA breaks in the presence of the drug (Covey et al., 1989; D'Arpa and Liu, 1989; Eng et al., 1988). Cytotoxicity is specific to the S-phase of the cell cycle because the double-strand breaks that occur during this phase are more difficult to repair in the presence of the drug (Horwitz and Horwitz, 1973). […] Other eligibility criteria included: (1) age>, 18 years; (2) an Eastern Cooperative Oncology Group (ECOG) performance status <2; (3) a predicted life expectancy of at least 3 months; (4) no previous anti-cancer therapy for at least 3 weeks (6 weeks for previous nitro- soureas or mitomycin C); (5) adequate haemato- poietic (WBC) 3 x 109 -', ANC > 1.5 x 109 1-' and platelets 100 x 10 1- 1), hepatic (bilirubin within normal limits, AST, ALT and/or alkaline phosphatase < 2.0 x normal), and renal (serum creatinine < 130 imol 1-') functions. All patients gave written informed consent.
# [1] = 0.3 mg m-2, day 1, individual patients 1-3 in order
# [2] = 0.3 mg m-2, day 1, mean of dose level
# [3] = 0.3 mg m-2, day 4, individual patients 1-3 in order
# [4] = 0.3 mg m-2, day 4, mean of dose level
# [5] = 0.6 mg m-2, day 1, individual patients 4-6 in order
# [6] = 0.6 mg m-2, day 1, mean of dose level
# [7] = 0.6 mg m-2, day 4, individual patients 4-6 in order
# [8] = 0.6 mg m-2, day 4, mean of dose level
# [9] = 1.2 mg m-2, day 1, individual patients 7-12 in order
# [10] = 1.2 mg m-2, day 1, mean of dose level
structure (smiles),measurement,setting,value
"CC[C@@]1(O)C(=O)OCc2c1cc1n(c2=O)Cc2c-1nc1cc3c(cc1c2CN1CCN(C)CC1)OCCO3 [GI147211, [7 - (methylpiperazinomethylene) - 10,11 - ethylene-dioxy-20(S)] camptothecin dihydrochloride]",AUCinf,[1],0.00493 µg·h/mL and 0.00404 µg·h/mL and 0.00477 µg·h/mL
same,"Clearance, total plasma clearance",[1],1014 ml min-1 m-2 and 1238 ml min-1 m-2 and 1048 ml min-1 m-2
same,Cmax,[1],3.63 ng/mL and 4.27 ng/mL and 3.73 ng/mL
same,MRT,[1],2.89 h and 1.66 h and 3.33 h
same,Vdss,[1],161 l m-2 and 104 l m-2 and 194 l m-2
same,"t1/2, elimination half-life",[1],2.96 h and 1.99 h and 2.63 h
same,tmax,[1],0.42 h
same,"AUCinf, mean",[2],0.00458 µg·h/mL
same,"Clearance, mean",[2],1100 ml min-1 m-2
same,"Cmax, mean",[2],3.88 ng/mL
same,"MRT, mean",[2],2.63 h
same,"Vdss, mean",[2],153 l m-2
same,"t1/2, mean",[2],2.52 h
same,"tmax, mean",[2],0.42 h
same,AUCinf,[3],0.00619 µg·h/mL and 0.00679 µg·h/mL and 0.00746 µg·h/mL
same,"Clearance, total plasma clearance",[3],808 ml min-1 m-2 and 736 ml min-1 m-2 and 670 ml min-1 m-2
same,Cmax,[3],4.73 ng/mL and 4.30 ng/mL and 5.11 ng/mL
same,MRT,[3],4.62 h and 4.73 h and 5.30 h
same,Vdss,[3],207 l m-2 and 199 l m-2 (2×)
same,"t1/2, elimination half-life",[3],4.82 h and 2.34 h and 3.81 h
same,tmax,[3],0.25 h (2×) and 0.42 h
same,"AUCinf, mean",[4],0.00681 µg·h/mL
same,"Clearance, mean",[4],738 ml min-1 m-2
same,"Cmax, mean",[4],4.71 ng/mL
same,"MRT, mean",[4],4.88 h
same,"Vdss, mean",[4],202 l m-2
same,"t1/2, mean",[4],3.65 h
same,"tmax, mean",[4],0.31 h
same,AUCinf,[5],0.0101 µg·h/mL and 0.01563 µg·h/mL and 0.014 µg·h/mL
same,"Clearance, total plasma clearance",[5],990 ml min-1 m-2 and 640 ml min-1 m-2 and 714 ml min-1 m-2
same,Cmax,[5],9.16 ng/mL and 9.41 ng/mL and 11.46 ng/mL
same,MRT,[5],4.01 h and 3.74 h and 3.52 h
same,Vdss,[5],223 l m-2 and 134 l m-2 and 140 l m-2
same,"t1/2, elimination half-life",[5],3.35 h and 2.81 h and 2.80 h
same,tmax,[5],0.42 h
same,"AUCinf, mean",[6],0.01325 µg·h/mL
same,"Clearance, mean",[6],781 ml min-1 m-2
same,"Cmax, mean",[6],10.01 ng/mL
same,"MRT, mean",[6],3.76 h
same,"Vdss, mean",[6],166 l m-2
same,"t1/2, mean",[6],2.98 h
same,"tmax, mean",[6],0.42 h
same,AUCinf,[7],0.01121 µg·h/mL and 0.0151 µg·h/mL and 0.01594 µg·h/mL
same,"Clearance, total plasma clearance",[7],892 ml min-1 m-2 and 662 ml min-1 m-2
same,Cmax,[7],7.60 ng/mL and 8.13 ng/mL and 9.29 ng/mL
same,MRT,[7],4.89 h and 5.38 h and 6.35 h
same,Vdss,[7],246 l m-2 and 203 l m-2 and 224 l m-2
same,"t1/2, elimination half-life",[7],3.42 h and 3.78 h and 4.15 h
same,tmax,[7],0.42 h (2×) and 0.25 h
same,"AUCinf, mean",[8],0.01408 µg·h/mL
same,"Clearance, mean",[8],727 ml min-1 m-2
same,"Cmax, mean",[8],8.34 ng/mL
same,"MRT, mean",[8],5.54 h
same,"Vdss, mean",[8],224 l m-2
same,"t1/2, mean",[8],3.78 h
same,"tmax, mean",[8],0.36 h
same,AUCinf,[9],0.01757 µg·h/mL and 0.02495 µg·h/mL and 0.0167 µg·h/mL and 0.01505 µg·h/mL and 0.01986 µg·h/mL and 0.01942 µg·h/mL
same,"Clearance, total plasma clearance",[9],1138 ml min-1 m-2 and 802 ml min-1 m-2 and 1198 ml min-1 m-2 and 1329 ml min-1 m-2 and 1007 ml min-1 m-2 and 1030 ml min-1 m-2
same,Cmax,[9],17.33 ng/mL and 11.97 ng/mL and 15.99 ng/mL and 12.83 ng/mL and 14.11 ng/mL and 17.65 ng/mL
same,MRT,[9],3.01 h and 5.18 h and 2.94 h and 3.04 h and 3.98 h and 2.66 h
same,Vdss,[9],189 l m-2 and 237 l m-2 and 193 l m-2 and 223 l m-2 and 225 l m-2 and 149 l m-2
same,"t1/2, elimination half-life",[9],3.62 h and 4.04 h and 2.54 h and 2.40 h and 5.10 h and 2.97 h
same,tmax,[9],0.42 h (5×) and 0.25 h
same,"AUCinf, mean",[10],0.01893 µg·h/mL
same,"Clearance, mean",[10],1084 ml min-1 m-2

# Source: article PMC2074382 (British Journal of Cancer, 1996)
